From article PMC6427912 (Journal of medicinal chemistry, 2019)
In brackets after ≈: the same amount, converted by molar mass. Several values for one entry are separate records, joined by “and”; a condition that tells them apart may be missing. Equal values may be shown once. Read-outs that look alike come from different tables or passages of the source.

What was measured:
B. subtilis [1] = assay: B. subtilis growth inhibition assay; format: cell-based, Bacillus subtilis
B. anthracis Sterne = format: cell-based, Bacillus anthracis; settings: B. anthracis Sterne growth inhibition
S. aureus = S. aureus growth inhibition assay; format: cell-based, Staphylococcus aureus; settings: for Sa ED50: S. aureus growth inhibition
Mycobacterium smegmatis = assay: M. smegmatis growth inhibition assay; format: cell-based
HEK293 cells = assay: HEK293 cell growth inhibition assay; format: cell-based, human; settings: for HEK293 toxicity (ED50): 96 hours incubation; for HEK 293: HEK293 cell growth inhibition ED50, 24 hr incubation
B. subtilis [2] = assay: B. subtilis serum binding assay; format: cell-based, Bacillus subtilis; settings: for effect of serum on B. subtilis growth inhibition: 4% or 10% fetal bovine serum
[3] = molecular target: EcOPPS (E. coli octaprenyl diphosphate synthase) (Escherichia coli, UniProt P0AD57); assay: OPPS enzyme inhibition assay; format: biochemical; settings: IC50 against EcOPPS
[4] = HEK293 cell growth inhibition assay; format: cell-based, human; settings: human, HEK293 cells
[5] = molecular target: T1, HsFPPS (human farnesyl diphosphate synthase) (Homo sapiens, UniProt P14324); assay: FPPS enzyme inhibition assay; format: biochemical
T1 sequence (P14324 1-419): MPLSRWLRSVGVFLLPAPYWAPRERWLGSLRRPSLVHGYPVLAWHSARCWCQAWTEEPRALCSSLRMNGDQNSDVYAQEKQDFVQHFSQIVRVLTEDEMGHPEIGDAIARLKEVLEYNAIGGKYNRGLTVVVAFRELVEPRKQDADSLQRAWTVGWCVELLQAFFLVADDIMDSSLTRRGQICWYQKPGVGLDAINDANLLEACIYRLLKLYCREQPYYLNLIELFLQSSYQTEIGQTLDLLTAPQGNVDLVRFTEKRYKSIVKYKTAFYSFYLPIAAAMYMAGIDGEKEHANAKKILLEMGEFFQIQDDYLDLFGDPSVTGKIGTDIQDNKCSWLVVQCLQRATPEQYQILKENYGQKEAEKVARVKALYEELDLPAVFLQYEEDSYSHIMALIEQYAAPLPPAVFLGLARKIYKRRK

B. subtilis [6] = assay: B. subtilis cell growth inhibition rescue assays; format: cell-based, Bacillus subtilis
EcUPPS = EcUPPS (Escherichia coli, UniProt P60472); assay: UPPS enzyme inhibition assay; format: biochemical, E. coli
B. subtilis [7] = settings: cited from earlier work
P. aeruginosa FPPS = settings: read-out: activity against P. aeruginosa FPPS; cited from earlier work
[8] = molecular target: SaHepPPS (S. aureus heptaprenyl diphosphate synthase) (Staphylococcus aureus, UniProt Q2FYG6); assay: HepPPS enzyme inhibition assay; format: biochemical; settings: IC50 against SaHepPPS
E. faecalis = settings: cited from earlier work
E. faecium = settings: cited from earlier work

EcOPPS (E. coli octaprenyl diphosphate synthase), sequence (P0AD57 whole entry): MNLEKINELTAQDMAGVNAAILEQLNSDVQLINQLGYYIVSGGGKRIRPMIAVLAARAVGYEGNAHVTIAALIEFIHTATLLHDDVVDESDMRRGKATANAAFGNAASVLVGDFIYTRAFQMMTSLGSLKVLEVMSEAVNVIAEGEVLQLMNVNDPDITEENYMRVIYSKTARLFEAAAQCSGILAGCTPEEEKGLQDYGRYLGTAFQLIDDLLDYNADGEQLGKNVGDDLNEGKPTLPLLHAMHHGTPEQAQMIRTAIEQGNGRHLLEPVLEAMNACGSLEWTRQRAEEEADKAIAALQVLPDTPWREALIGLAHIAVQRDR
EcUPPS, sequence (P60472 whole entry): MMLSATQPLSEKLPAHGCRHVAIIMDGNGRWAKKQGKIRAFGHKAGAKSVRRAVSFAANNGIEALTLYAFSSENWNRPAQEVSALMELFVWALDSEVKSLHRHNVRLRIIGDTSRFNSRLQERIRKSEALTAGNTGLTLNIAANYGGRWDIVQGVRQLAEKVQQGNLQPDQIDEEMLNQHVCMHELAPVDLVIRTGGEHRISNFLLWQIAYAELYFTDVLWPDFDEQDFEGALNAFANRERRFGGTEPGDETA

SMILES | Bs ED50 (B. subtilis [1]; 12 hours) | Bs ED50 (B. subtilis [1]; value in parentheses) | Ba ED50 (B. anthracis Sterne) | Ba ED50 (B. anthracis Sterne; value in parentheses) | Sa ED50 (S. aureus) | Sa ED50 (S. aureus; value in parentheses) | Ms ED50 (Mycobacterium smegmatis; 48 hours) | Ms ED50 (Mycobacterium smegmatis; value in parentheses) | HEK293 toxicity (ED50) (HEK293 cells) | HEK 293 (HEK293 cells) | effect of serum on B. subtilis growth inhibition (B. subtilis [2]) | IC50 [3] | further results
CC(C)CCCC(C)CCCc1ccc[n+](CC(P(=O)([O-])O)P(=O)(O)O)c1 (stereo not shown) [Compound 77, Hydrogen(2-(3-(4,8-dimethylnonyl)pyridin-1-ium-1-yl)-1-phosphonoethyl) phosphonate] | 2.2 µg/mL | 5.2 µM | 2.1 µg/mL | 5.0 µM | 13 µg/mL | 31 µM | 5.9 µg/mL | 14 µM | 140 µM | 194 µg/mL | no effect |  | 
CCCCCCCCCCOc1ccc[n+](CC(P(=O)([O-])O)P(=O)(O)O)c1 (stereo not shown) [Compound 6] |  |  |  |  |  |  |  |  |  |  |  | ~0.006 µM | 
CCCCCCCCCCCc1ccc[n+](CC(P(=O)([O-])O)P(=O)(O)O)c1 (stereo not shown) [Compound 76, Hydrogen (1-phosphono-2-(3-undecylpyridin-1-ium-1-yl)ethyl)phosphonate] | 2.1 µg/mL | 4.8 µM | 0.6 µg/mL | 1.4 µM | 13 µg/mL | 30 µM | 6.1 µg/mL | 14 µM | 7.3 µM | 96 µg/mL | no effect |  | 
CC(C)CCCC(C)CCCc1cc[n+](CC(P(=O)([O-])O)P(=O)(O)O)cc1 (stereo not shown) [Compound 80, Hydrogen(2-(4-(4,8-dimethylnonyl)pyridin-1-ium-1-yl)-1-phosphonoethyl) phosphonate] | 3.1 µg/mL | 7.4 µM | 2.2 µg/mL | 5.2 µM | 21 µg/mL | 50 µM | 7.2 µg/mL | 17 µM |  | 295 µg/mL |  |  | IC50 [4]: ~1000 µM; HEK 293 (HEK293 cells; value in parentheses): 700 µM
CC(C)CCCC(C)CCOc1cc[n+](CC(P(=O)([O-])O)P(=O)(O)O)cc1 (stereo not shown) [Compound 84, Hydrogen (2-(4-((3,7-dimethyloctyl)oxy)pyridin-1-ium-1-yl)-1-phosphonoethyl) phosphonate] |  | 14 µM | 2.5 µg/mL | 5.9 µM |  | 66 µM | 150 µg/mL | 350 µM |  | 420 µg/mL |  |  | IC50 [4]: ~1000 µM; HEK 293 (HEK293 cells; value in parentheses): 1000 µM
O=P(O)(O)C(O)(Cn1ccnc1)P(=O)(O)O [Compound 24, zoledronate] |  |  |  |  |  |  |  |  |  |  |  | < 1 µM | 
CC(C)CCCC(C)CCOc1ccc[n+](CC(P(=O)([O-])O)P(=O)(O)O)c1 (stereo not shown) [Compound 74, Hydrogen(2-(3-((3,7-dimethyloctyl)oxy)pyridin-1-ium-1-yl)-1-phosphonoethyl) phosphonate] |  | 2.4 µM | 2.3 µg/mL | 5.4 µM | 14 µg/mL | 33 µM | 5.9 µg/mL | 14 µM | 76 µM and ~ 70 µM | 262 µg/mL | little effect |  | HEK293 toxicity (HEK293 cells; after 24 hrs): ~ 0.5 mM; IC50 [5]: 0.2 µM and ~0.2 µM; increase in ED50 for B. subtilis growth inhibition, rescue by HMBPP (B. subtilis [6]; 50 µM HMBPP): ~ 2 x; increase in ED50 for B. subtilis growth inhibition, rescue by MK-4 (B. subtilis [6]; 50 µM MK-4): ~ 5 x; inhibition of UPPS (EcUPPS): no inhibition
O=P([O-])(O)C(Cn1cc[n+](CCCc2ccc(F)c(F)c2)c1)P(=O)(O)O (stereo not shown) [Compound 72, reference compound] |  |  |  |  |  |  |  |  | 13 µM |  |  |  | increase in ED50 with 10% serum (B. subtilis [2]; B. subtilis, 10% serum): 50%; activity against B. subtilis (B. subtilis [7]): > 100 µg/mL; IC50 (P. aeruginosa FPPS): 0.1 to 0.2 µM
O=P(O)(O)C(O)(Cc1cccc(-c2cccc3c2oc2ccccc23)c1)P(=O)(O)O [Compound 69] |  |  |  |  |  | 19 µM |  |  |  |  |  | ~330 µM | IC50 [8]: 1 to 2 µM
CCCCCCCCCCCCCCOc1cccc(O)c1C(=O)O [Compound 70] |  |  |  |  |  |  |  |  |  |  |  |  | IC50 (S. aureus; Staphylococcus aureus, read-out: IC50 for S. aureus cell growth inhibition): 19 µM; IC50 [8]: 1 to 2 µM; MIC E. faecalis cell growth (E. faecalis): 4 µg/mL (≈ 11.4 µM); MIC E. faecium cell growth (E. faecium): 4 µg/mL (≈ 11.4 µM)
